# Where a name gives a salt, the structure may show the parent alone. Read-outs that look alike come from different tables or passages of the source.
# Tests used:
# [1] = tested on: TTXs sodium channels (ND7/23 cells); experiment: TTXs-sodium channel influx assay (fluorescence, membrane potential kit); format: cell-based, rat; conditions: veratridine 100 μM
# Method: ND7/23 rat dorsal root ganglion-derived cell line endogenously expresses a mixed population of TTXs sodium channels (such as Nav1.3, Nav1.2, Nav1.1, Nav1.6). These cells lack of TTXr sodium channels as shown by the absence of their respective transcripts. ND7/23 cells are grown in Dulbecco's Modified Eagle Medium (DMEM, Invitrogen, CA—USA) supplemented with 10% Foetal Bovine Serum (FBS, Invitrogen, CA—USA) and 1 mM sodium piruvate. The cells are seeded at 50,000 cells/well on 96 poly-L-lysine-coated plates and further incubated for 18-24 h before use.
# The Membrane Potential Kit Assay (Molecular Devices, CA—USA), based on a negatively charged fluorescent dye able to monitor changes in membrane potential caused by the sodium influx due to the channel opening, is used for the assay.
# Cells are incubated with the dye loading for 30 minutes at 25° C. Then, 100 nM of the toxin Anemonia sulcata (used as enhancer of the channel opener response) alone or in the presence of TTX (as reference standard) or test compound are added for further 15 minutes.
# The fluorescence (excitation: 530 nm, emission: 565 nm wavelength) is measured before and after (40-45 s) the automated injection of the sodium channel opener veratridine (100 μM) using a Victor plate reader (Perkin Elmer, MA—USA).
# The inhibition curves are calculated from 5 concentrations, each in triplicate, and the IC50 determined using a linear regression analysis.
# The results, obtained with some compounds which are representative of the entire class of compounds of the invention are reported in Table 1.
# CYP2D6 = CYP2D6 (Homo sapiens (Human), UniProt P10635); experiment: Inhibition of Cytochrome P4502D6 (CYP2D6) using Supersomes; format: in vitro ADME; conditions: AMMC substrate
# Sequence of CYP2D6 (P10635 whole entry): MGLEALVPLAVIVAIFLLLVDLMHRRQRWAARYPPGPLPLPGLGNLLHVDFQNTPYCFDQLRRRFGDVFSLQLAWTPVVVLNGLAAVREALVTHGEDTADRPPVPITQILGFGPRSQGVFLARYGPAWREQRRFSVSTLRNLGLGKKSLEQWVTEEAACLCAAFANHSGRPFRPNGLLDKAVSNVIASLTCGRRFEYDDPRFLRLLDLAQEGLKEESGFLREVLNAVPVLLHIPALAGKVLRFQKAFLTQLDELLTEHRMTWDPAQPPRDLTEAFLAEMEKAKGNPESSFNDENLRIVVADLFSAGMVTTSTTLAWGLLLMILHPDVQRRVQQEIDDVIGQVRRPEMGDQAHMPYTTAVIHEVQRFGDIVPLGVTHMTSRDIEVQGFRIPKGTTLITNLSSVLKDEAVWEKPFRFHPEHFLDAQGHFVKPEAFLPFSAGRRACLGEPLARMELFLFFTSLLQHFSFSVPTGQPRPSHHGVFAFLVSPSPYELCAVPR
# Method: The inhibition of Cytochrome P4502D6 (CYP2D6) is assessed by performing in vitro inhibition studies using Supersomes, microsomes derived from baculovirus infected insect cells; the baculoviruses are engineered to express one or more drug metabolizing enzyme cDNAs. Supersomes catalyze the same enzymatic reactions as human liver microsome enzymes, but they contain much higher enzyme activity than other microsome sources (Crespi C. L. and Penman B. W., Advances Pharmacology, 43, 171-188 (1997); Crespi C. L. and Miller V. P., Analytical Biochemistry, 248, 188-190 (1997)).
# Kits with Supersomes are Supplied by GENTEST (MA, USA).
# Test compound is dissolved in DMSO 500× the highest final concentration desired in the IC50 assay. 30 ml of deionized water is pre-warmed to 37° C. and all kit components are placed on ice. For each well of column 1, 149.4 μL of NADPH-Cofactor Mix, (187.5 μl of Cofactors, 150 μl of G6PDH, 100 μl of Control Protein and 14.56 ml of 37° C. water) are added.
# In each well from Column 2 to 12, 100 μl of Cofactor/DMSO mix (40 μL DMSO in 9.96 ml of NADPH-Cofactor Mix) are added. To each well of column 1, 0.6 μl of test compound or positive control are added. 50 μl from each well of column 1 are serially diluted to column 8. The extra 50 μl from column 8 are discarded. The plate is covered and pre-incubated at 37° C. for 10 minutes.
# Preparation of enzyme/substrate mix: 7.92 ml of pre-warmed deionized water, 75 μl of enzyme, 3 μl of 10 mM AMMC and 2 ml of pre-warmed buffer are mixed.
# After the pre-incubation time (10′), 100 μl of enzyme/substrate mix to each well from column 1 to 10 are added. The plate is incubated at 37° C. for 30 minutes. After this time, 75 μl of Stop Reagent to each well are added. For blank controls, 100 μl of enzyme/substrate mix are added to columns 11 and 12.
# Plates are read at the Victor plate reader (Perkin Elmer, MA—USA) at 390 nm excitation and 460 nm emission wavelengths.
# [2] = read-out: IC50 (Fluorinated derivative)
# [3] = reference standards of the closest prior art, read-out: IC50 (Corresponding de-fluorinated derivative)
SMILES,IC50 [1],IC50 (CYP2D6; [2]),IC50 (CYP2D6; [3])
"CN1CCN(C(=O)CNCC(F)(F)c2cccc(OCCCC(F)(F)F)c2)CC1 [Example 1-28, 2-{2,2-Difluoro-2-[3-(4,4,4-trifluorobutoxy)-phenyl)-ethylamino}-1-(4-methylpiperazin-1-yl)-ethanone, hydrochloride]",3.2 µM,,
"CCCCOc1cccc(C(F)(F)CNCC(=O)N(C)C)c1 [Example 1-1, 2-[2,2-Difluoro-2-(3-butoxyphenyl)-ethylamino]-N,N-dimethyl-acetamide, hydrochloride]",1 µM,,
"CCCCOc1cccc(C(F)(F)CNCC(=O)N(CCC)CCC)c1 [Example 1-3, 2-[2,2-Difluoro-2-(3-butoxyphenyl)-ethylamino]-N,N-dipropyl-acetamide, hydrochloride]",0.58 µM,23.9 µM,
"CCCCOc1cccc(C(F)(F)CNCC(=O)N2CCC2)c1 [Example 1-42, 2-[2,2-Difluoro-2-(3-butoxyphenyl)-ethylamino)-1-(azetidin-1-yl)-ethanone, hydrochloride]",5 µM,,
"CCCCOc1cccc(C(F)(F)CN(CCOC)CC(=O)N(C)C)c1 [Example 3-3, 2-{[2,2-Difluoro-2-(3-butoxyphenyl)-ethyl]-(2-methoxyethyl)-amino}-N,N-dimethyl-acetamide, hydrochloride]",1.4 µM,,
"CCCCOc1cccc(C(F)(F)CNC(COC)C(=O)N(C)C)c1 (stereo not drawn) [Example 2-2, 2-[2,2-Difluoro-2-(3-butoxyphenyl)-ethylamino]-3-methoxy-N,N-dimethyl-propanamide]",6.2 µM,,
"CCCCOc1cccc(C(F)(F)CNCC(=O)N2CCCC2)c1 [Example 1-15, 2-[2,2-Difluoro-2-(3-butoxyphenyl)-ethylamino]-1-(pyrrolidin-1-yl)-ethanone, hydrochloride]",1.1 µM,,
"CCCCOc1cccc(C(F)(F)CNCC(=O)N2CCCCC2)c1 [Example 1-29, 2-[2,2-Difluoro-2-(3-butoxyphenyl)-ethylamino]-1-(piperidin-1-yl)-ethanone, hydrochloride]",1.8 µM,,
"CCCCOc1cccc(CCNCC(=O)N(CC)CC)c1 [2-[2-(3-Butoxyphenyl)-ethylamino]-N,N-diethyl-acetamide, hydrochloride]",,,2.5 µM
"CCCCCCOc1cccc(CCNCC(=O)N(C)C)c1 [2-[2-(3-Hexyloxyphenyl)-ethylamino]-N,N-dimethyl-acetamide, hydrochloride]",,,0.9 µM
"CCCCOc1cccc(CCNCC(=O)N2CCCC2)c1 [2-[2-(3-Butoxyphenyl)-ethylamino]-1-(pyrrolidin-1-yl)-ethanone, hydrochloride]",,,3 µM
"O=C(CNCCc1cccc(OCCCC(F)(F)F)c1)N1CCCC1 [2-{2-[3-(4,4,4-trifluorobutoxy)-phenyl]-ethylamino}-1-(pyrrolidin-1-yl)-ethanone, hydrochloride]",,,5 µM
"CCCCOc1cccc(CCNCC(=O)N(CCC)CCC)c1 [2-[2-(3-Butoxyphenyl)-ethylamino]-N,N-dipropyl-acetamide, hydrochloride]",,,0.7 µM
"CCCCCOc1cccc(CCNCC(=O)N(C)C)c1 [2-[2-(3-Pentyloxyphenyl)-ethylamino]-N,N-dimethyl-acetamide, hydrochloride]",,,3.5 µM
"CCCCCCOc1cccc(C(F)(F)CNCC(=O)N(C)C)c1 [Example 1-6, 2-[2,2-Difluoro-2-(3-hexyloxyphenyl)-ethylamino]-N,N-dimethyl-acetamide, hydrochloride]",0.14 µM,,
"CCCCOc1cccc(C(F)CNCC(=O)N(C)C)c1 (stereo not drawn) [Example 4-1, 2-[2-Fluoro-2-(3-butoxyphenyl)-ethylamino]-N,N-dimethyl-acetamide, hydrochloride]",1.5 µM,,

SMILES,IC50 [1],IC50 (CYP2D6; [2]),IC50 (CYP2D6; [3])
"CCCCCOc1cccc(C(F)(F)CNCC(=O)N(C)C)c1 [Example 1-2, 2-[2,2-Difluoro-2-(3-pentyloxyphenyl)-ethylamino]-N,N-dimethyl-acetamide, hydrochloride]",1.3 µM,> 40 µM,
"CCCCOc1cccc(C(F)(F)CN(CCCOC)CC(=O)N(C)C)c1 [Example 3-2, 2-{[2,2-Difluoro-2-(3-butoxyphenyl)-ethyl]-(3-methoxypropyl)-amino}-N,N-dimethyl-acetamide, hydrochloride]",2.4 µM,> 40 µM,
"O=C(CNCCc1cccc(OCCCC(F)(F)F)c1)N1CCOCC1 [2-{2-[3-(4,4,4-trifluorobutoxy)phenyl]-ethylamino}-1-(morpholin-4-yl)-ethanone, hydrochloride]",,,1.8 µM
"CCCCOc1cccc(CCNC(C)C(=O)N(C)C)c1 (stereo not drawn) [2-[2-(3-Butoxyphenyl)-ethylamino]-N,N-dimethyl-propanamide, hydrochloride]",,,5.8 µM
"CN(C)C(=O)CNCCc1cccc(OCc2ccccc2)c1 [2-[2-(3-Benzyloxyphenyl)-ethylamino]-N,N-dimethyl-acetamide, hydrochloride]",,,10.6 µM
"CCCCOc1cccc(C(F)(F)CNCC(=O)N(CC)CC)c1 [Example 1-32, 2-[2,2-Difluoro-2-(3-butoxyphenyl)-ethylamino]-N,N-diethyl-acetamide, hydrochloride]",2.8 µM,,
"CCCCOc1cccc(C(F)(F)CNCC(=O)N2CCN(C)CC2)c1 [Example 1-26, 2-[2,2-Difluoro-2-(3-butoxyphenyl)-ethylamino]-1-(4-methylpiperazin-1-yl)-ethanone, hydrochloride]",23.2 µM,,
"CN(C)C(=O)CNCC(F)(F)c1cccc(OCc2ccccc2)c1 [Example 1-14, 2-[2,2-Difluoro-2-(3-benzyloxyphenyl)-ethylamino]-N,N-dimethyl-acetamide, hydrochloride]",1.2 µM,,
"CN(C)C(=O)CNCC(F)(F)c1cccc(OCCCC(F)(F)F)c1 [Example 1-7, 2-{2,2-Difluoro-2-[3-(4,4,4-trifluorobutoxy)-phenyl]-ethylamino}-N,N-dimethyl-acetamide, hydrochloride]",3.6 µM,,
"CCCCOc1cccc(CCN(CCCOC)CC(=O)N(C)C)c1 [2-{[2-(3-Butoxyphenyl)-ethyl]-(3-methoxypropyl)-amino}-N,N-dimethyl-acetamide, hydrochloride]",,,7.3 µM
"CCCCOc1cccc(CCNCC(=O)N2CCCCC2)c1 [2-[2-(3-Butoxyphenyl)-ethylamino]-1-(piperidin-1-yl)-ethanone, hydrochloride]",,,1.1 µM
"CCCCOc1cccc(C(F)(F)CN(C)CC(=O)N(C)C)c1 [Example 3-1, 2-{[2,2-Difluoro-2-(3-butoxyphenyl)-ethyl]-methylamino}-N,N-dimethyl-acetamide, hydrochloride]",2.3 µM,,
"O=C(CNCC(F)(F)c1cccc(OCCCC(F)(F)F)c1)N1CCCC1 [Example 1-18, 2-{2,2-Difluoro-2-[3-(4,4,4-trifluorobutoxy)-phenyl]-ethylamino}-1-(pyrrolidin-1-yl)-ethanone]",0.95 µM,,
"CCCCOc1cccc(CCNCC(=O)N(C)C)c1 [2-[2-(3-Butoxyphenyl)-ethylamino]-N,N-dimethyl-acetamide, hydrochloride]",,,5.8 µM
"CCCCOc1cccc(C(F)(F)CNC(C)C(=O)N(C)C)c1 (stereo not drawn) [Example 2-1, 2-[2,2-Difluoro-2-(3-butoxyphenyl)-ethylamino]-N,N-dimethyl-propanamide, hydrochloride]",20 µM,> 40 µM,
"CCCCOc1cccc(CCN(CCOC)CC(=O)N(C)C)c1 [2-{[2-(3-Butoxyphenyl)-ethyl]-(2-methoxyethyl)-amino}-N,N-dimethyl-acetamide, hydrochloride]",,,3.4 µM
